From patent US9862730B2, “Imidazothiadiazole derivatives as protease activated receptor 4 (PAR4) inhibitors for treating platelet aggregation” (BRISTOL-MYERS SQUIBB COMPANY, priority 2012, dated 2018) come the findings set out here.

As usually defined, the IC50 is the concentration needed to halve the response being measured.

Molecules are shown by their SMILES.

Test [1] deals with T1, PAR4 (Homo sapiens (Human), UniProt Q96RI0). Put plainly: Gamma thrombin induced platelet aggregation assay in PRP (PRP assay). The format is cell-based. The text has this: The compounds of the current invention can be tested in vitro for their ability to inhibit platelet aggregation induced by gamma-thrombin as shown in Example C. Gamma-thrombin, a proteolytic product of alpha-thrombin which no longer interacts with PAR1, selectively cleaves and activates PAR4 (Soslau, G. et al., “Unique pathway of thrombin-induced platelet aggregation mediated by glycoprotein Ib”, J. Biol. Chem., 276:21173-21183 (2001)). Platelet aggregation can be monitored in a 96-well microplate aggregation assay format or using standard platelet aggregometer. The aggregation assay can also be employed to test the selectivity of the compound for inhibiting platelet aggregation induced by PAR4 agonist peptides, PAR1 agonist peptide, ADP, or thromboxane analogue U46619.
The platelet rich plasma was isolated by centrifugation at 170 g for 14 minutes.
The ability of the compounds of the current invention to inhibit platelet aggregation induced by gamma-thrombin was tested in a 96-well microplate aggregation assay format. Briefly, PRP or washed platelet suspension (100 μl) was pre-incubated for 5 minutes at room temperature with varying concentrations of compounds. Aggregation was initiated by ˜10-50 nM gamma thrombin (Haematologic Technologies, Essex Junction, Vt.), which was titrated daily to achieve 80% platelet aggregation. Refludan at 1 U/mL (Berlex, Montville, N.J.) was added to the gamma thrombin sample to prevent PAR1 activation induced by residual alpha-thrombin contamination. The plate was then placed into a 37° C. Molecular Devices (Sunnyvale, Calif.) SPECTRAMAX® Plus Plate Reader. […] Data was collected with SOFTMAX® 4.71 software. The plate also included an untreated control sample which served as ODmax, while buffer containing no platelets was the ODmin. Platelet aggregation was determined by subtracting the ODmax from the ODmin for the 100% aggregation value. In experimental samples, the observed transmission was subtracted from the minimum value and then compared to the 100% aggregation value to determine the percentage aggregation. IC50 values are determined using Excel Fit software.
As indicated above, the PRP assay, an in vitro assay, measures the PAR4 antagonist activity of compounds tested as described in Example C.

For test [2], the target named is T1, PAR4. Put plainly: FLIPR assay in PAR4-expressing HEK293 cells (PAR4 antagonist activity, calcium mobilization). The format is cell-based. To be noted: FLIPR assay as described in Example A. The procedure, abridged: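 Calcium-flux antagonist readout: compounds preincubated 30 min at room temperature with PAR4-transfected HEK293 cells in HBSS with 10 mM HEPES (0.67% DMSO final), then agonist peptide added. Agonist activity checked on compound addition; cells carry endogenous PAR1.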

T1 sequence (Q96RI0 18-385): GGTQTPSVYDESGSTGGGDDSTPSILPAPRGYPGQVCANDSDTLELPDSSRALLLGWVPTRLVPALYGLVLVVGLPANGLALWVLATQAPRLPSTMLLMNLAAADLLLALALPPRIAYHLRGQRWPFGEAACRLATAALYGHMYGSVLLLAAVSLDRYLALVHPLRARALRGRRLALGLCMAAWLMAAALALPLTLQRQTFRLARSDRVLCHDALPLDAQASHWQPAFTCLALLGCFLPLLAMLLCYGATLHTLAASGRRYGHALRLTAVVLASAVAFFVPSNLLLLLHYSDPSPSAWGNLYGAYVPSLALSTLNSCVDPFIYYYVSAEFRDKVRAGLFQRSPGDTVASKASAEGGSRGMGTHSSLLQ

`COc1cc(OCc2cccc(OCc3cc(OC(C)C)cc(OC(C)C)c3)c2)c2cc(-c3cn4nc(OC)sc4n3)oc2c1` [Example 371]: the IC50 in test [1] was determined as 6910 nM; in test [2] it was 7.56 nM.
For `COc1cc(OCc2cccc(OCc3cccc(OC)c3OC)c2)c2cc(-c3cn4nc(OC)sc4n3)oc2c1` [Example 353], in that order: 10.5 nM and 2.25 nM.
Taken in the same sequence, the figures for `COCCOc1cccc2oc(-c3cn4nc(Br)sc4n3)cc12` [Example 252] were above 30000 nM and 121 nM.
As to `CSc1nn2cc(-c3nc4c(OCc5cccc(OCc6ccccc6)c5)cccc4o3)nc2s1` [Example 173], the values for the half-inhibitory concentration (IC50) in test [1] and in test [2] were 5280 nM and 39.4 nM, respectively.
With `COc1nn2cc(-c3cc4c(OCc5ccccc5)cc(OCc5ccccc5)cc4o3)nc2s1` [Example 255], the figures for the IC50 in test [1] and in test [2] were above 30000 nM and 113 nM, respectively.
For `CCC(C)(C)c1ccc2oc(-c3cn4nc(SC)sc4n3)nc2c1` [Example 131], in that order: above 30000 nM and 107 nM.
For `COc1cc(OCc2cccc(OCc3ccccc3)c2)c2cc(-c3cn4nc(C(C)(F)F)sc4n3)oc2c1` [Example 347], in that order: 579 nM and 2.74 nM.
For `COc1nn2cc(-c3nc4ccccc4s3)nc2s1` [Example 5, 2-(2-Methoxyimidazo[2,1-b][1,3,4]thiadiazol-6-yl)benzo[d]thiazole], in that order: above 30000 nM and 351 nM.
`COc1cc(OCc2cccc(OCc3ccccn3)c2)c2cc(-c3cn4nc(OC)sc4n3)oc2c1` [Example 319]: the values for the IC50 in test [1] and in test [2] were 124 nM and 9.2 nM, respectively.
Taken in the same sequence, the figures for `CCc1nn2cc(-c3nc4cc(F)c(F)cc4o3)nc2s1` [Example 38] were above 30000 nM and 66.6 nM.
Taken in the same sequence, the figures for `COc1cc(OCc2cccc(OCc3ccc(Oc4ccccc4)cc3)c2)c2cc(-c3cn4nc(OC)sc4n3)oc2c1` [Example 372] were 3410 nM and 2.27 nM.
For `COc1nn2cc(-c3cc4ccc(OC)c(OC)c4o3)nc2s1` [Example 10, 6-(6,7-Dimethoxybenzofuran-2-yl)-2-methoxyimidazo[2,1-b][1,3,4]thiadiazole], in that order: above 30000 nM and 1800 nM.
With `CCOc1cccc2cc(-c3cn4nc(OC)sc4n3)oc12` [Example 34], the half-maximal inhibitory concentration (IC50) in test [1] is above 30000 nM; in test [2], 149 nM.
Taken in the same sequence, the figures for `COc1cc(OCc2cc(F)cc(OCc3ccccc3)c2)c2cc(-c3cn4nc(OC)sc4n3)oc2c1` [Example 350] were 85.7 nM and 0.76 nM.
For `CCOc1nn2cc(-c3cc4ccccc4o3)nc2s1` [Example 26], the IC50 in test [1] was above 30000 nM.
Same read-out and setting: the result for `COc1cc(OCc2cccc(OCc3cccc(F)c3)c2)c2cc(-c3cn4nc(OC)sc4n3)oc2c1` [Example 327] reads 37.9 nM.
For `COc1cc(OC)c2c(C)c(-c3cn4nc(OC)sc4n3)oc2c1` [Example 72], the results for the IC50 in test [1] and in test [2] were 2330 nM and 3.91 nM, respectively.
Taken in the same sequence, the figures for `COc1cc(OCc2cccc(OC(=O)c3ccccc3)c2)c2cc(-c3cn4nc(OC)sc4n3)oc2c1` [Example 355] were 33.3 nM and 1.65 nM.
For `COc1cc(OCc2cccc(OCc3ccccc3C)c2)c2cc(-c3cn4nc(OC)sc4n3)oc2c1` [Example 363], in that order: 38.3 nM and 2.42 nM.
For `COc1cc(OCc2cccc(OCc3ccc(F)cc3)c2)c2cc(-c3cn4nc(OC)sc4n3)oc2c1` [Example 346], in that order: 147 nM and 1.68 nM.
Take `COc1cc(OCc2ccc(F)cc2)c2cc(-c3cn4nc(OC)sc4n3)oc2c1` [Example 303]: the half-inhibitory concentration (IC50) in test [1] worked out at 3190 nM; in test [2], 5.68 nM.
Take `CCc1nn2cc(-c3nc4cc(C(C)(C)C)ccc4o3)nc2s1` [Example 57]: the IC50 was above 30000 nM in test [1] and 575 nM in test [2].
`COc1nn2cc(-c3cc4c(F)cc(OCc5cccc(OCc6ccccc6)c5)cc4o3)nc2s1` [Example 428]: the figures for the IC50 in test [1] and in test [2] were 73.2 nM and 4.81 nM, respectively.
Taken in the same sequence, the figures for `COc1cc(OCc2cccc(OCc3cc(Cl)cc(Cl)c3)c2)c2cc(-c3cn4nc(OC)sc4n3)oc2c1` [Example 376] were 677 nM and 7.27 nM.
For `COc1cc(COc2cc(OC)cc3oc(-c4cn5nc(OC)sc5n4)cc23)cc(OCc2ccccc2)c1` [Example 404], in that order: 22.5 nM and 2.44 nM.
For `COc1cc(OCc2cccc(OCc3ccccc3)c2)c2cc(-c3cn4nc(Cl)sc4n3)oc2c1` [Example 405], in that order: 544 nM and 4.69 nM.
`COc1cc(OCc2cccc(OCc3cc(F)cc(C(F)(F)F)c3)c2)c2cc(-c3cn4nc(OC)sc4n3)oc2c1` [Example 356]: the IC50 came out at 109 nM in test [1] and 1.66 nM in test [2].
Taken in the same sequence, the figures for `CSc1nn2cc(-c3nc4ccc(OC(C)C)cc4o3)nc2s1` [Example 161] were above 30000 nM and 79.9 nM.
For `CCOc1nn2cc(-c3cc4c(OCc5cccc(OCc6ccccc6)c5)cc(OC)cc4o3)nc2s1` [Example 348], in that order: 3080 nM and 2.26 nM.
With `COc1cc(OCc2cccc(OCc3cccc(Oc4ccccc4)c3)c2)c2cc(-c3cn4nc(OC)sc4n3)oc2c1` [Example 384], the IC50 in test [1] turned out to be 568 nM; in test [2], 5.05 nM.
Taken in the same sequence, the figures for `COc1cc(OCc2cccc(OCc3cccc(C(F)(F)F)c3F)c2)c2cc(-c3cn4nc(OC)sc4n3)oc2c1` [Example 316] were 93.3 nM and 4.17 nM.
On to `COc1cc(OCc2ccc(F)cc2)c2cc(-c3cn4nc(SC)sc4n3)oc2c1` [Example 301], for which the IC50 was determined as 2960 nM in test [1] and 23 nM in test [2].
Turning to `CSc1nn2cc(-c3cc4ccccc4s3)nc2s1` [Example 17], in test [1], the IC50 is above 30000 nM.
Consider `CSc1nn2cc(-c3nc4c(OCc5cc(F)cc(F)c5)cccc4o3)nc2s1` [Example 171], for which the IC50 in test [2] turned out to be 48.1 nM.
On the same count and under the same terms, to `CSc1nn2cc(-c3nc4cccc(F)c4o3)nc2s1` [Example 143] belongs 48.8 nM.
Same read-out and setting: to `COc1cc(OCc2cccc(OCc3c(OC)cccc3OC)c2)c2cc(-c3cn4nc(OC)sc4n3)oc2c1` [Example 388] belongs 3.12 nM; to `CCc1nn2cc(-c3nc4cc(Cl)ccc4o3)nc2s1` [Example 45], 135 nM.
Same read-out and setting: the result for `COc1nn2cc(-c3nc4c(OC(F)(F)F)cccc4s3)nc2s1` [Example 195] reads 2420 nM.
`COCOc1c(Br)ccc2oc(-c3cn4nc(OC)sc4n3)cc12` [Example 217A, 6-(5-Bromo-4-(methoxymethoxy)benzofuran-2-yl)-2-methoxyimidazo[2,1-b][1,3,4]thiadiazole]: in test [2], the half-inhibitory concentration (IC50) stood at 45.1 nM.
Same read-out and setting: the result for `COc1cc(OC)c2cc(-c3cn4nc(C(C)(F)F)sc4n3)oc2c1Br` [Example 225, 6-(7-Bromo-4,6-dimethoxybenzofuran-2-yl)-2-(1,1-difluoroethyl)imidazo[2,1-b][1,3,4]thiadiazole] reads 300 nM; that for `CSc1nn2cc(-c3cc4c(C)cc(C)cc4o3)nc2s1` [Example 295], 12.1 nM.
For the molecule `CC(F)c1nn2cc(-c3cc4c(OCc5ccccc5)cccc4o3)nc2s1` (centres unmarked) [Example 251], in test [2], the IC50 amounted to 230 nM.
On the same count and under the same terms, the result for `COc1cc(OCc2cccc(OCc3ccc(F)cc3C(F)(F)F)c2)c2cc(-c3cn4nc(OC)sc4n3)oc2c1` [Example 385] reads 3.13 nM; that for `COc1nn2cc(-c3cc4cc([N+](=O)[O-])ccc4o3)nc2s1` [Example 100], 71.4 nM; that for `CCc1nn2cc(-c3nc4ccc(OCCCc5ccccc5)cc4o3)nc2s1` [Example 78], 576 nM.
On the same count and under the same terms, the result for `COc1nn2cc(-c3cc4c(OCc5cccc(OCc6ccccc6)c5)cc(Cl)cc4o3)nc2s1` [Example 414, 6-(4-((3-(Benzyloxy)benzyl)oxy)-6-chlorobenzofuran-2-yl)-2-methoxyimidazo[2,1-b][1,3,4]thiadiazole] reads 5.17 nM; that for `COc1nn2cc(-c3nc4ccc(OCc5ccc(C(F)(F)F)cc5)cc4o3)nc2s1` [Example 165], 81 nM; that for `CSc1nn2cc(-c3nc4c(C)cc(Cl)cc4s3)nc2s1` [Example 192], 990 nM.
On the same count and under the same terms, the result for `COc1cc(OCc2cc(OCc3ccccc3)cc(C(F)(F)F)c2)c2cc(-c3cn4nc(OC)sc4n3)oc2c1` [Example 400] reads 7.47 nM.
For `COc1cc(OC)c2cc(-c3cn4nc(C(C)(F)F)sc4n3)oc2c1` [Example 242], the IC50 in test [2] is 50.5 nM.
